This assay deals with T1, α2-GABAA receptor (Homo sapiens, UniProt P18507+P47869).
T1 construct: expressed in transfected cells
Put plainly: Whole-cell patch-clamp electrophysiology, positive allosteric modulatory activity in α2-GABAAR-HEK293 cells. Conditions: compound 100 nM, GABA 0.10 to 0.11 µM (approximately EC7-8), normalized to reference compound CVL-865 (= 100%); for Emax at 0.1 µM: read-out: α2-GABAAR Positive allosteric modulatory activity. In kind it is cell-based. From the text:
The α subunit, β subunit, and γ subunit are indispensable for forming a fully functional GABAA receptor. In this example, HEK293 cells stably expressing α2-GABAA receptors (α2-GABAAR) were constructed and screened respectively via liposome transfection (Felgner, P.L., et al. Proceedings of the National Academy of Sciences, 1987, 84: 7413-7417). The α2-GABAAR-HEK293 cell model co-expresses the α2 subunit (protein sequence referenced under GenBank accession number: NM_000807.4), β3 subunit (protein sequence referenced under GenBank accession number: NM_000814.5), and γ2 subunit (protein sequence referenced under GenBank accession number: NM_000816.3).
The above cell lines were subcultured. α2-GABAAR-HEK293 cells were amplified for testing the affinity of compounds to the benzodiazepine (BZD) site of GABAA receptors. Some of the α2-GABAAR-HEK293 cells in suspension during subculturing were plated on glass slides pre-treated with Poly-D-Lysine for electrophysiological testing (method reference: Patent CN 107344936 A, paragraph 0586).
The positive modulatory activity of the test drug on the α2-GABAA receptor was assessed using electrophysiological methods. The specific approach is as follows:
With regards to the concentration of the compound, the final concentration of all compounds used in the screening was 100 nM. For cell lines expressing α2-GABAA receptors, the GABA concentration was 0.10 to 0.11 µM (approximately EC7-8). Electrophysiological experiments were conducted using the whole-cell patch-clamp technique, which can be referenced to the method reported in the literature (Nickolls, S. A., et al. *British Journal of Pharmacology*, 2018, 175: 708-725). The composition of the extracellular solution (ECS) for electrophysiology was as follows: 150 mM NaCl, 5 mM KCl, 2.5 mM CaCl2, 1 mM MgCl2, 10 mM HEPES, and 10 mM glucose (pH 7.4). The intracellular solution (ICS) for electrophysiology was formulated as follows: 140 mM CsCl, 11 mM EGTA, 10 mM HEPES, 2 mM CaCl2, 1 mM MgCl2, 4 mM MgATP, and 2 mM TEA (pH 7.3). GABA (γ-aminobutyric acid) powder was dissolved in pure water to prepare a stock solution, which was subsequently diluted in ECS. The compound was initially dissolved in dimethyl sulfoxide to prepare a 4 mM stock solution, followed by stepwise dilution into GABA-ECS at corresponding concentrations. All solutions were freshly prepared prior to electrophysiological testing.
Electrophysiological signals were acquired using an EPC 10 amplifier and PatchMaster software (HEKA) or an Axon 700B amplifier and Clampex software (AXON). The recording electrode was pulled from borosilicate glass, with an electrode resistance of 4 to 6 MΩ. Extracellular administration was performed using the ALA-VC-8PG™ system. A single independently growing cell was selected. After forming a tight seal between the glass electrode and the cell membrane, the membrane was ruptured to establish the whole-cell configuration. The cell membrane potential was clamped at -60 mV and recorded in Gap-free mode. During the test, extracellular fluid was first applied externally for approximately 20 seconds. After the baseline (Iprebaseline) was stabilized, the extracellular solution was switched to GABA-ECS. At this point, the current induced by GABA (Igaba) can be detected. After approximately 10 to 20 seconds, once the current had stabilized, the extracellular solution was switched to a mixture of the compound and GABA-ECS until the current induced by both the compound and GABA (Itreatment) could be detected. Finally, the solution was switched to extracellular fluid, and the recording was terminated after 20 to 40 seconds. Only cells with a stable baseline, an absolute control current magnitude (Igaba - Iprebaseline) greater than 40 pA, and a relatively stable current within 10 to 20 seconds were used for compound testing. […]

Structures are written as SMILES.

T1 sequence (P47869 29-451): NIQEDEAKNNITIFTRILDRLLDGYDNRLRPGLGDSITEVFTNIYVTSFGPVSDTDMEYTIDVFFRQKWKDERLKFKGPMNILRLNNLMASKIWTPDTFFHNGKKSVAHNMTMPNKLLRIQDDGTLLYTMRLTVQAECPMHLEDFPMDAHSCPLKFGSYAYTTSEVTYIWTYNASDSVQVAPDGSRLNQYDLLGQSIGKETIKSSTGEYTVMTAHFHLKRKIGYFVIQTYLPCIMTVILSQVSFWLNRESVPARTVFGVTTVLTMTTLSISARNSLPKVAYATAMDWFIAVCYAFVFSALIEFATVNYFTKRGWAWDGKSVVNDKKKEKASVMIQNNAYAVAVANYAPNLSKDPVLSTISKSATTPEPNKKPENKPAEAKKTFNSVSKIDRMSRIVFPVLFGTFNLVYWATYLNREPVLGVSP
T1 sequence (P18507 40-467 isoform P18507-1 limits assumed): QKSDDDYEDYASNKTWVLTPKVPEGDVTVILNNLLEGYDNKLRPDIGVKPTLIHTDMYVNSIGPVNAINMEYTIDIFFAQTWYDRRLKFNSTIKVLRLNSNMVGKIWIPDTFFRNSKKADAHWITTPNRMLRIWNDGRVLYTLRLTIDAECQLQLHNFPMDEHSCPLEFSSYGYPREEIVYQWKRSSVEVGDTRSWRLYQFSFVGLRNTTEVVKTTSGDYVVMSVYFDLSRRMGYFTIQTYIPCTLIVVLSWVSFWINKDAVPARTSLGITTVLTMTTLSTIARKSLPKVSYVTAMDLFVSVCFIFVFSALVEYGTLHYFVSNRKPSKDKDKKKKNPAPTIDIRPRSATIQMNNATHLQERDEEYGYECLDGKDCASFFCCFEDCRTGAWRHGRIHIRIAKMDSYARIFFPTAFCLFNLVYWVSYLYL
T1 sequence (P28472 26-473 partner): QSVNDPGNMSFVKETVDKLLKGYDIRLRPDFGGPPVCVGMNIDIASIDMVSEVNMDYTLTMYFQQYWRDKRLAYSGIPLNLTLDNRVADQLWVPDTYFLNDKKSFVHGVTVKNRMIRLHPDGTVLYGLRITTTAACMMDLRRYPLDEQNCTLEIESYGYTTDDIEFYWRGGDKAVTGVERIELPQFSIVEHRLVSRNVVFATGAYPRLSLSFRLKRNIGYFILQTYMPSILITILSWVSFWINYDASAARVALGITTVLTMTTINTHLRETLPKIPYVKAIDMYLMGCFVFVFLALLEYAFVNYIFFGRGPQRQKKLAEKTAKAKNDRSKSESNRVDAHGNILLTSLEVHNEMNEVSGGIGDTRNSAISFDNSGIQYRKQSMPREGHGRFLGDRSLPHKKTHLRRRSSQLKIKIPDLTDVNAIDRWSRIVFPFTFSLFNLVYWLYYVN

For `CCCNC(=O)c1nc2c(-c3cccc(N4CCOC4=O)c3)cccn2c1N` [Example 41, 3-Amino-8-(3-(2-oxooxazolidin-3-yl)phenyl)-N-propylimidazo[1,2-a]pyridine-2-carboxamide], the Emax at 0.1 µM is 30%. For `CCCNC(=O)c1nc2c(-c3c(F)cccc3SC)cccn2c1N` [Example 74, 3-Amino-8-(2-fluoro-6-(methylthio)phenyl)-N-propylimidazo[1,2-a]pyridine-2-carboxamide], the Emax at 0.1 µM came out at 73%. Turning to `CCCNC(=O)c1nc2c(-c3c(F)cccc3OC(F)(F)F)cccn2c1N` [Example 75, 3-Amino-8-(2-fluoro-6-(trifluoromethoxy)phenyl)-N-propylimidazo[1,2-a]pyridine-2-carboxamide], the Emax at 0.1 µM was determined as 101%. `CCCNC(=O)c1nc2c(-c3cc4cnn(C)c4cc3OC)cccn2c1N` [Example 95, 3-Amino-8-(6-methoxy-1-methyl-1H-indazol-5-yl)-N-propylimidazo[1,2-a]pyridine-2-carboxamide]: the Emax at 0.1 µM was 27%. As for `COc1cccc(F)c1-c1cccn2c(N)c(C(=O)NCCCO)nc12` [Example 23, 3-Amino-8-(2-fluoro-6-methoxyphenyl)-N-(3-hydroxypropyl)imidazo[1,2-a]pyridine-2-carboxamide], the Emax at 0.1 µM was found to be 57%.

As to `CCCNC(=O)c1nc2c(-c3cnoc3C)cccn2c1N` [Example 141, 3-Amino-8-(5-methyl-1,2-oxazol-4-yl)-N-propylimidazo[1,2-a]pyridine-2-carboxamide], the Emax at 0.1 µM came to 44%. As to `CCCNC(=O)c1nc2c(-c3c(F)cccc3OC)c(Cl)ccn2c1N` [Example 130, 3-Amino-7-chloro-8-(2-fluoro-6-methoxyphenyl)-N-propylimidazo[1,2-a]pyridine-2-carboxamide], the Emax at 0.1 µM was 53%. In the case of `CCCNC(=O)c1nc2c(-c3c(F)ccc(Cl)c3OC)cccn2c1N` [Example 80, 3-Amino-8-(2-fluoro-6-methoxyphenyl-5-chloro)-N-propylimidazo[1,2-a]pyridine-2-carboxamide], the Emax at 0.1 µM came out at 77%.

Consider `CCCNC(=O)c1nc2c(-c3ccnc(C)c3)cccn2c1N` [Example 86, 3-Amino-8-(2-methylpyridin-4-yl)-N-propylimidazo[1,2-a]pyridine-2-carboxamide], for which the Emax at 0.1 µM is 73%. In the case of `CCCNC(=O)c1nc2c(-c3cnc(OC)nc3OC)cccn2c1N` [Example 81, 3-Amino-8-(2,4-dimethoxypyrimidin-5-yl)-N-propylimidazo[1,2-a]pyridine-2-carboxamide], the Emax at 0.1 µM worked out at 48%. Take `C=CCNC(=O)c1nc2c(-c3c(F)cccc3OC)cccn2c1N` [Example 30, N-Allyl-3-amino-8-(2-fluoro-6-methoxyphenyl)imidazo[1,2-a]pyridine-2-carboxamide]: the Emax at 0.1 µM was found to be 81%. `CCCNC(=O)c1nc2c(-c3ccc(F)cc3OC)c(F)ccn2c1N` [Example 121, 3-Amino-7-fluoro-8-(4-fluoro-2-methoxyphenyl)-N-propylimidazo[1,2-a]pyridine-2-carboxamide]: the Emax at 0.1 µM amounted to 88%.

Take `CCCNC(=O)c1nc2c(-c3cc(F)cc(F)c3)c(F)ccn2c1N` [Example 113, 3-Amino-8-(3,5-difluorophenyl)-7-fluoro-N-propylimidazo[1,2-a]pyridine-2-carboxamide]: the Emax at 0.1 µM turned out to be 49%. The same measure, in the same setting: the figure for `COc1cccc(F)c1-c1cccn2c(N)c(C(=O)NCCO)nc12` [Example 22, 3-Amino-8-(2-fluoro-6-methoxyphenyl)-N-(2-hydroxyethyl)imidazo[1,2-a]pyridine-2-carboxamide] is 25%; for `CCCNC(=O)c1nc2c(-c3cccnc3OC)c(F)ccn2c1N` [Example 115, 3-Amino-7-fluoro-8-(2-methoxypyridin-3-yl)-N-propylimidazo[1,2-A]pyridine-2-carboxamide] it is 123%. Consider `CCCNC(=O)c1nc2c(-c3cc4ncoc4cc3F)cccn2c1N` [Example 98], for which the “α2-GABAAR Positive allosteric modulatory activity” value is listed as 64%.

Turning to `CCCNC(=O)c1nc2c(-c3cccc(-c4ccnnc4)c3)cccn2c1N` [Example 44], the Emax at 0.1 µM stood at 31%.

In the case of `CCCNC(=O)c1nc2c(-c3cc4c(cc3OC)N(C)CCO4)cccn2c1N` [Example 92, 3-Amino-8-(6-methoxy-4-methyl-3,4-dihydro-2H-benzo[b][1,4]oxazin-7-yl)-N-propylimidazo[1,2-a]pyridine-2-carboxamide], the Emax at 0.1 µM stood at 33%. Turning to `CCCNC(=O)c1nc2c(-c3c(F)cccc3COC)cccn2c1N` [Example 65, 3-Amino-8-(2-fluoro-6-(methoxymethyl)phenyl)-N-propylimidazo[1,2-a]pyridine-2-carboxamide], the Emax at 0.1 µM was 36%. The same measure, in the same setting: the figure for `CCCNC(=O)c1nc2c(-c3c(F)cccc3OC)c(C(F)F)ccn2c1N` [Example 128, 3-Amino-7-(difluoromethyl)-8-(2-fluoro-6-methoxyphenyl)-N-propylimidazo[1,2-a]pyridine-2-carboxamide] is 49%. In the case of `COc1cccc(F)c1-c1cccn2c(N)c(C(=O)NCc3ccccn3)nc12` [Example 20, 3-Amino-8-(2-fluoro-6-methoxyphenyl)-N-(pyridin-2-methyl)imidazo[1,2-a]pyridine-2-carboxamide], the Emax at 0.1 µM came to 35%. Turning to `COc1cccc(F)c1-c1cccn2c(N)c(C(=O)Nc3ccccn3)nc12` [Example 14, 3-Amino-8-(2-fluoro-6-methoxyphenyl)-N-(pyridin-2-yl)imidazo[1,2-a]pyridine-2-carboxamide], the Emax at 0.1 µM came out at 54%. On to `[2H]c1ccc(-c2c(F)cccc2OC)c2nc(C(=O)NCCC)c(N)n12` [Example 156, 3-amino-8-(2-fluoro-6-methoxyphenyl)-N-propylimidazo[1,2-a]pyridine-5-deuterium-2-carboxamide], for which the “α2-GABAAR Positive allosteric modulatory activity” value turned out to be 100%. On to `CCCNC(=O)c1nc2c(-c3c(F)cccc3OC)cc(F)cn2c1N` [Example 155, 3-Amino-6-fluoro-8-(2-fluoro-6-methoxyphenyl)-N-propylimidazo[1,2-a]pyridine-2-carboxamide], for which the Emax at 0.1 µM stood at 56%. Consider `CCCNC(=O)c1nc2c(-c3c(OC)ccc4ccc(F)cc34)cccn2c1N` [Example 107, 3-Amino-8-(7-fluoro-2-methoxynaphthalen-1-yl)-N-propylimidazo[1,2-a]pyridine-2-carboxamide], for which the Emax at 0.1 µM is 90%. Take `CCCNC(=O)c1nc2c(-c3cc(OC)nnc3OC)c(F)ccn2c1N` [Example 117, 3-Amino-8-(3,6-dimethoxypyridazin-4-yl)-7-fluoro-N-propylimidazo[1,2-a]pyridine-2-carboxamide]: the Emax at 0.1 µM turned out to be 88%.

`COc1cccc(F)c1-c1c(F)ccn2c(N)c(C(=O)NCC=C(F)F)nc12` [Example 131, 3-Amino-N-(3,3-difluoroallyl)-7-fluoro-8-(2-fluoro-6-methoxyphenyl)imidazo[1,2-a]pyridine-2-carboxamide]: the “α2-GABAAR Positive allosteric modulatory activity” value was determined as 82%. With `CCCNC(=O)c1nc2c(-c3cccnc3F)cccn2c1N` [Example 90, 3-Amino-8-(2-fluoropyridin-3-yl)-N-propylimidazo[1,2-a]pyridine-2-carboxamide], the Emax at 0.1 µM stood at 60%.

`CCCNC(=O)c1nc2c(-c3cc4cn(C)nc4cc3OC)cccn2c1N` [Example 96, 3-Amino-8-(6-methoxy-2-methyl-2H-indazol-5-yl)-N-propylimidazo[1,2-a]pyridine-2-carboxamide]: the Emax at 0.1 µM was found to be 52%.

Values taken from EP4703359A1 (Shanghai Simr Biotechnology Co., Ltd., priority 2023, dated 2024).
